In US5288720A, “Angiotensin II receptor blocking 2,3,6 substituted quinazolinones” (American Cyanamid Company, priority 1993, dated 1994):

What was measured:
[1] = molecular target: T1, Angiotensin II Receptor (Bos taurus, UniProt P25104); assay: Receptor Binding Assay: Binding of [^125 I](Sar^1,Ile^8)AngII to beef adrenal cortex membranes; details: 60 min, room temperature
T1 construct: The brownish tissue forming the adrenal cortex is scraped off and finely minced with scissors before homogenization; from tissue; host or cells: beef adrenal cortex, microsomal membranes (100,000×g pellet); fresh glands from a local slaughter house (Maxwell-Cohen)
T1 sequence (P25104 1-359): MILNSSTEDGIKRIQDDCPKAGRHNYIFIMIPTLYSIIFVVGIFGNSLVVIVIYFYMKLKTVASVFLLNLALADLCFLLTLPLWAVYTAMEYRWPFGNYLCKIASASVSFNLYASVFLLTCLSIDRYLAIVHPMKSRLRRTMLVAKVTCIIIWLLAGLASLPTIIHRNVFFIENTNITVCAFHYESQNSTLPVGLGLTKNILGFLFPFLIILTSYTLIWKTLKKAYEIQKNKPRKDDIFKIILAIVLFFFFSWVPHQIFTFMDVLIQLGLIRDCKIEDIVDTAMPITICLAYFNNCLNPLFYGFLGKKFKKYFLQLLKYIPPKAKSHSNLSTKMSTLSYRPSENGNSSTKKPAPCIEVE
From the text: Beef adrenals are obtained from a local slaughter house (Maxwell-Cohen). [^125 […]. 2200 Ci/mmole, is purchased from Dupont (NEN®, Boston, Mass.). All unlabeled AngII analogs, Dimethylsulfoxide (DMSO), nucleotides, bovine serum albumin (BSA) are purchased from Sigma Chemical Co., St. Louis, Mo. U.S.A. […] Approximately sixteen (16) to twenty (20) beef adrenal glands are processed as follows: fresh adrenal glands received on crushed ice are cleaned of fatty tissues and the tough membranes encapsulating the glands are removed and discarded. The brownish tissue forming the adrenal cortex is scraped off and finely minced with scissors before homogenization. Care is taken to avoid contamination with medullary tissue during dissection. The scraped cortices are suspended in twenty volumes of an ice-cold buffer medium consisting of 10 mM Tris.HCl (pH 7.4 at 22° C.) and containing 1.0 mM EDTA and 0.2M sucrose. Unless otherwise indicated, all subsequent operations are done at 4° C. […] The homogenate is centrifuged first at low speed (3,000×g) for 10 minutes. […] This P2 pellet is discarded and the liquid phase is carefully decanted off in clean centrifuge tubes and recentrifuged at high speed (100,000×g) for 60 minutes. The translucent final pellet is harvested and combined in a small volume (20-50.0 ml) of 50.0 mM Tris.HCl buffer, pH 7.2. A 100 ul aliquot is withdrawn and the protein content of the preparation is determined by the Lowry's method (Lowry, O. H., Rosebrough, […]. and Randall, R. J., Protein measurement with Folin phenol reagent. J. Biol. Chem., […], 265-275, 1951). The pelleted membrane is reconstituted in 50.0 mM Tris.HCl buffer containing 0.1 mM of phenylmethylsulfonyl fluoride (PMSF) to give approximately a protein concentration of 2.5 mg per ml of tissue suspension. […] Receptor Binding Assay: […] In competition studies, experimental compounds are diluted in dimethylsulfoxide (DMSO) and added in 20 ul to wells before the introduction of tissue membranes. […] Assays are performed in triplicate. The wells are left undisturbed for 60 minutes at room temperature. Following incubation, all wells are harvested at once with a Brandel® Harvester especially designed for a 96 well plate (Brandel® Biomedical Research & Development Labs. Inc., Gaithersburg, Md., U.S.A.). The filter discs are washed with 10×1.0 ml of cold 0.9% NaCl to remove unbound ligand. Presoaking the filter sheet in 0.1% polyethyleneimine in normal saline (PEI/Saline) greatly reduces the radioactivity retained by the filter blanks. This method is routinely used. The filters are removed from the filter grid and counted in a Parkard® Cobra Gamma Counter for 1 minutes. (Packard Instrument Co., Downers Grove, Ill, U.S.A.). The binding data are analyzed by the non-linear interactive "LUNDON-1" program (LUNDON SOFTWARE Inc., Cleveland, Ohio U.S.A.).

[2] = tested on: ANGIOTENSIN II VASOPRESSOR RESPONSE; assay: AII Challenge: blockade of angiotensin II vasopressor response in conscious SHR; assay type: in vivo, rat (Conscious Male Okamoto-Aoki SHR); details: SHR n=2, 3 mg/kg i.v.
From the text: By administering a compound of this invention to a rat, and then challenging with angiotensin II, a blockage of the vasopressor response is realized.
Conscious Male Okamoto-Aoki SHR, 16-20 weeks old, weighing approximately 330 g are purchased from Charles River Labs (Wilmington, Mass.). Conscious rats are restrained in a supine position with elastic tape. The area at the base of the tail is locally anesthetized by subcutaneous infiltration with 2% procaine. The ventral caudal artery and vein are isolated, and a cannula made of polyethylene (PE) 10-20 tubing (fused together by heat) is passed into the lower abdominal aorta and vena cava, respectively. The cannula is secured, heparinized (1,000 I.U./ml), sealed and the wound is closed. The animals are placed in plastic restraining cages in an upright position. The cannula is attached to a Statham P23Db pressure transducer, and pulsatile blood pressure is recorded to 10-15 minutes with a Gould Brush recorder. (Chan et al., (Drug Development Res., 18:75-94, 1989).
Angiotensin II (human sequence, Sigma Chem. Co., St. Louis, MO) of 0.05 and 0.1 ug/kg i.v. is injected into all rats (predosing response). Then a test compound, vehicle or a known angiotensin II antagonist is administered i.v., i.p. or orally to each set of rats. The two doses of angiotensin II are given to each rat again at 30, 60, 90, 120, 180, 240 and 300 minutes post dosing the compound or vehicle. The vasopressor response of angiotensin II is measured for the increase in systolic blood pressure in mmHg. The percentage of antagonism or blockade of the vasopressor response of angiotensin II by a compound is calculated using the vasopressor response (increase in systolic blood pressure) of angiotensin II of each rat predosing the compound as 100%. A compound is considered active if at 30 mg/kg i.v. it antagonized at least 50% of the response.

[3] = AII 0.01 mcg/kg IV (so in the source), 30 min post dose
[4] = AII 0.05 mcg/kg IV, 30 min post dose
[5] = AII 0.05 mcg/kg IV, 60 min post dose
[6] = AII 0.05 mcg/kg IV, 90 min post dose
[7] = AII 0.05 mcg/kg IV, 120 min post dose
[8] = AII 0.05 mcg/kg IV, 180 min post dose
[9] = AII 0.05 mcg/kg IV, 240 min post dose
[10] = AII 0.05 mcg/kg IV, 300 min post dose
[11] = AII 0.1 mcg/kg IV, 60 min post dose
[12] = AII 0.1 mcg/kg IV, 90 min post dose
[13] = AII 0.1 mcg/kg IV, 120 min post dose
[14] = AII 0.1 mcg/kg IV, 180 min post dose
[15] = AII 0.1 mcg/kg IV, 240 min post dose
[16] = AII 0.1 mcg/kg IV, 300 min post dose

CCCCc1nc2ccc(C(O)C3CCCS3(=O)=O)cc2c(=O)n1Cc1ccc(-c2ccccc2-c2nn[nH]n2)cc1 (single isomer, unassigned; isomer 1) [Example 15, 2-Butyl-6-[hydroxy(tetrahydro-2-thienyl)methyl-3-[[2'-(1H-tetrazol-5-yl)[1,1'-biphenyl]-4-yl]methyl]-4(3H)-quinazolinone S,S-dioxide isomer 1]
IC50 [1]: 0.11 µM | % Inhibition of AII vasopressor response [2, 3]: 75% | Average Change (systolic blood pressure response to AII) [2, 3]: 12.5 mmHg | % Inhibition of AII vasopressor response [2, 4]: 88% | Average Change (systolic blood pressure response to AII) [2, 4]: 5 mmHg | % Inhibition of AII vasopressor response [2, 5]: 73% | Average Change (systolic blood pressure response to AII) [2, 5]: 11 mmHg | % Inhibition of AII vasopressor response [2, 6]: 83% | Average Change (systolic blood pressure response to AII) [2, 6]: 7 mmHg | % Inhibition of AII vasopressor response [2, 7]: 32% | Average Change (systolic blood pressure response to AII) [2, 7]: 27.5 mmHg | % Inhibition of AII vasopressor response [2, 8]: 42% | Average Change (systolic blood pressure response to AII) [2, 8]: 23.5 mmHg | % Inhibition of AII vasopressor response [2, 9]: 38% | Average Change (systolic blood pressure response to AII) [2, 9]: 25 mmHg | % Inhibition of AII vasopressor response [2, 10]: 26% | Average Change (systolic blood pressure response to AII) [2, 10]: 30 mmHg | % Inhibition of AII vasopressor response [2, 11]: 63% | Average Change (systolic blood pressure response to AII) [2, 11]: 18.5 mmHg | % Inhibition of AII vasopressor response [2, 12]: 54% | Average Change (systolic blood pressure response to AII) [2, 12]: 23 mmHg | % Inhibition of AII vasopressor response [2, 13]: 45% | Average Change (systolic blood pressure response to AII) [2, 13]: 27.5 mmHg | % Inhibition of AII vasopressor response [2, 14]: 50% | Average Change (systolic blood pressure response to AII) [2, 14]: 25 mmHg | % Inhibition of AII vasopressor response [2, 15]: 50% | Average Change (systolic blood pressure response to AII) [2, 15]: 25 mmHg | % Inhibition of AII vasopressor response [2, 16]: 45% | Average Change (systolic blood pressure response to AII) [2, 16]: 27.5 mmHg

CCCCc1nc2ccc(C(O)C3CCCO3)cc2c(=O)n1Cc1ccc(-c2ccccc2-c2nn[nH]n2)cc1 (centres unmarked) [Example 28]
IC50 [1]: 0.13 µM

CCCCc1nc2ccc(C(O)C3CCCCN(C)C3=O)cc2c(=O)n1Cc1ccc(-c2ccccc2-c2nn[nH]n2)cc1 (single isomer, unassigned; isomer 2) [Example 55, 2-Butyl-6-[(hexahydro-1-methyl-2-oxo-1H-azepin-3-yl)hydroxymethyl]-3-[[2'-(1H-tetrazol-5-yl)[1,1'-biphenyl]-4-yl]methyl-4(3H)quinazolinone isomer 2]
IC50 [1]: 0.15 µM

CCCCc1nc2ccc(C(O)C3CCCCN(C)C3=O)cc2c(=O)n1Cc1ccc(-c2ccccc2-c2nn[nH]n2)cc1 (single isomer, unassigned; isomer 1) [Example 54, 2-Butyl-6-[(hexahydro-1-methyl-2-oxo-1H-azepin-3-yl)hydroxymethyl]-3-[[2'-(1H-tetrazol-5-yl)[1,1'biphenyl]-4-yl]methyl-4-(3H)-quinazolinone isomer 1]
IC50 [1]: 0.43 µM
